{
  "source": "patent US20100331311A1",
  "about": "(priority 2005, published 2010)",
  "key": {"[1]": {"tested_on": "retinal ganglion cells (RGCs)", "assay_type": "in vivo, Sprague-Dawley rats"}, "[2]": {"tested_on": "retinal ganglion cells (RGCs)", "parameters": "species or system Brown Norway rats", "settings": "rat, in vivo, ip, 3.5 mg/kg", "quoted_text": "Two weeks after ocular hypertension surgery, animals were subjected to daily treatment with galantamine ˜3.5 mg/kg body weight, intraperitoneal administration (i.p.). Analysis of RGC survival was carried out at 5 weeks after ocular hypertension surgery.\nTherefore, two weeks after ocular hypertension surgery, animals received daily intraperitoneal (i.p) injections of galantamine at a dose of 3.5 mg/kg b.w. as shown in FIG. 2.\nAll surgeries were performed in adult male Brown Norway rats, retired breeders, between 10-12 months of age (300-400 g), under general anesthesia by intraperitoneal injection of 1 ml/kg b.w. standard rat cocktail consisting of ketamine (100 mg/ml), xylazine (20 mg/ml) and acepromazine (10 mg/ml).\nSeven days after DiI application, the time required for labeling the entire RGC population, animals were subjected to ocular hypertension surgery as described below. […]\nAnalysis of RGC survival was carried out at 5 weeks after ocular hypertension surgery. Quantification of RGC bodies or axons was always performed in duplicate and in a masked fashion. […] Under fluorescence microscopy, DiI-labeled or FluoroGold-labeled neurons were counted in 12 standard retinal areas as previously described (Cheng et al. 2002; Sapieha et al. 2003)."}, "[3]": {"tested_on": "glaucomatous and normal (contralateral) eyes", "parameters": "species or system Brown Norway rats", "settings": "rat, in vivo, 3.5 mg/kg", "protocol": "IOP from glaucomatous and normal (contralateral) eyes was measured in awake animals using a calibrated tonometer (TonoPen XL, Medtronic Solan, Jacksonville, Fla.). Ten to fifteen consecutive readings per eye were taken and averaged to obtain an accurate daily IOP measurement. IOP was measured daily for two weeks after ocular hypertension surgery, and then every other day for the entire duration of the experiment. The mean IOP (mm Hg±S.E.M.) per eye was the average of all IOP readings since the onset of pressure elevation. The maximum IOP measured in each individual eye, glaucomatous or normal contralateral eye, was defined as the peak IOP and this value was used to estimate the mean peak IOP for each group. The delta positive integral IOP was calculated as the area under the IOP curve in the glaucomatous eye minus that of the fellow normal eye from ocular hypertension surgery to euthanasia. Integral IOP represents the total, cumulative IOP exposure throughout the entire experiment.\nFor this purpose, Applicant measured intraocular pressure every other day for entire duration of daily treatment with galantamine up to 35 days after ocular hypertension (OHT) surgery."}, "[4]": {"settings": "human, in vivo; cited from earlier work"}, "[5]": {"settings": "mouse, in vivo; cited from earlier work"}, "[6]": {"target": "alpha-7 nicotinic acetylcholine receptor (Rattus norvegicus, UniProt Q05941)", "sequence (Q05941 23-502 limits assumed)": "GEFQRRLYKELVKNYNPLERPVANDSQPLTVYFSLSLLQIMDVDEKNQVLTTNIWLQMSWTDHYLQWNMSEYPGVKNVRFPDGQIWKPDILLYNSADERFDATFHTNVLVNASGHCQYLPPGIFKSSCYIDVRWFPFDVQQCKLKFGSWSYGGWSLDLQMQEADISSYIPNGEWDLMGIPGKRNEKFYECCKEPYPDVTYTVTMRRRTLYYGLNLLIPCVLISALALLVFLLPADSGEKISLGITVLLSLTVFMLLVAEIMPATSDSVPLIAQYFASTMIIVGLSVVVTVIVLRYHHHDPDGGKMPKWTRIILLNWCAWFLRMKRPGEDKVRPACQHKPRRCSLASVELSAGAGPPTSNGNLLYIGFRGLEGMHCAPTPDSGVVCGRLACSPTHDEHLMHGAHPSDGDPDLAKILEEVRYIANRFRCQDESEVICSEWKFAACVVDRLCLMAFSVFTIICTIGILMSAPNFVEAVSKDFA", "parameters": "species or system Sprague-Dawley rats", "settings": "in vivo"}},
  "data": [
    {"molecule": "COc1cc2c(cc1OC)C(=O)C(CC1CCN(Cc3ccccc3)CC1)C2", "note": "(stereo not shown) [Donepezil, donepezil]", "values": [
      {"measurement": "neuroprotection of RGCs after axotomy, galantamine vs donepezil (in words)", "setting": "[1]; 3.5 mg/kg b.w., single intraocular injection, 1 week after optic nerve axotomy", "value": "neuroprotective after axotomy"}
    ]},
    {"molecule": "COc1ccc2c3c1O[C@H]1C[C@@H](O)C=C[C@@]31CCN(C)C2", "note": "[Galantamine, galantamine]", "values": [
      {"measurement": "RGCs preserved", "setting": "[2]", "value": 90, "unit": "%"},
      {"measurement": "Integral IOP", "setting": "[3]", "value": "321 ± 10", "unit": "mm Hg"},
      {"measurement": "Mean IOP Control", "setting": "[3]", "value": "23.7 ± 0.2", "unit": "mm Hg"},
      {"measurement": "Mean IOP Glaucoma", "setting": "[3]", "value": "40.7 ± 0.8", "unit": "mm Hg"},
      {"measurement": "RGCs remaining alive", "setting": "[1]; rat, in vivo", "value": "~30", "unit": "%"},
      {"measurement": "survival of axotomized RGCs", "setting": "[1]; rat, in vivo", "value": "> 75", "unit": "%"},
      {"measurement": "estimated brain concentration of functionally available galantamine", "setting": "[4]", "value": "500 to 1200", "unit": "nM"},
      {"measurement": "brain levels", "setting": "[5]", "value": "200 to 1000", "unit": "nM"}
    ]},
    {"molecule": "Alpha-bungarotoxin", "values": [
      {"measurement": "block of the total neuroprotective effect of galantamine", "setting": "[6]", "value": "10-15%"}
    ]}
  ]
}
